From patent US20100179188A1, “NITROXIDE RADICAL AS TREATMENT FOR NEURODEGENERATION” (Office of Technology Transfer, NIH, priority 2007, published 2010)

Biological target: T1, cytosolic aconitase (Mus musculus, UniProt P28271)
T1 construct: Embryonic fibroblasts of 13-day old embryos were isolated from wild type, IRP1−/− mice and IRP2−/− mice; endogenous in cells; host or cells: mouse embryonic fibroblasts (wild type and IRP2−/−)
T1 sequence (P28271 1-889): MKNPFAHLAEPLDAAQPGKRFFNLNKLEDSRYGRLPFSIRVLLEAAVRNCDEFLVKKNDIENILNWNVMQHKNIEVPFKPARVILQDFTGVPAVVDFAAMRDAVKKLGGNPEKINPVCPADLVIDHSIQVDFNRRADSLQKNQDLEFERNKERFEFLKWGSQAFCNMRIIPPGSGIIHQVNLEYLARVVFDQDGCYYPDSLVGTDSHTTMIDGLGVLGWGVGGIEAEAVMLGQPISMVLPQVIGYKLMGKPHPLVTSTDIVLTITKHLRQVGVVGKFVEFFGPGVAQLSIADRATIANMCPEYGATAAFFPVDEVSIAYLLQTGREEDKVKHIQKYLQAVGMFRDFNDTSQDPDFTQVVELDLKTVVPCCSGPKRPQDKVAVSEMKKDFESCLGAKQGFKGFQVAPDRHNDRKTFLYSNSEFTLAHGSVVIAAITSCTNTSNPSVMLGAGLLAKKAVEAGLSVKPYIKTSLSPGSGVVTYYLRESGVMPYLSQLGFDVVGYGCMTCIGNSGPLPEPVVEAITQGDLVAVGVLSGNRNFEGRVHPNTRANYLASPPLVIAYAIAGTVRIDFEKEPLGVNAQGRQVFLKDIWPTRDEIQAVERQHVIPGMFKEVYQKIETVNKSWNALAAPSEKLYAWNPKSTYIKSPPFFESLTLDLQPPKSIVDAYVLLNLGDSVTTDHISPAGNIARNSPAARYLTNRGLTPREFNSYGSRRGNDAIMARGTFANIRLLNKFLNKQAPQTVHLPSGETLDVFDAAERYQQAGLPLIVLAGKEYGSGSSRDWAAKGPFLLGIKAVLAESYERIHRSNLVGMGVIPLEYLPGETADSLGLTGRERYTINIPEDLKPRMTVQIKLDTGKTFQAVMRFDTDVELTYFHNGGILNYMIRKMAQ
Assay: In-gel aconitase assay in mouse embryonic fibroblast lysates, cytosolic aconitase
Assay type: cell-based
Method: Cells: Embryonic fibroblasts of 13-day old embryos were isolated from wild type, IRP1−/− mice and IRP2−/− mice as described in LaVaute et al. supra. Myc-tagged HEK 293 Tet-on cell line, in which IRP2 expression was inducible, was prepared and cultured as described Bourdon et al., Blood Cells Mol Dis, 31, 247-255 (2003). Erythroblasts were harvested from bone marrow and purified as described in Cooperman et al., Blood, 106, 1084-1091 (2005).
Aconitase assay: Aconitase activity gels for human lysates were performed as described in Tong et al., infra, and aconitase activity gels for mouse lysate were performed with the following modifications. The gel was composed of a separating gel containing 6% acrylamide, 132 mM Tris base, 66 mM borate, 3.6 mM citrate, and a stacking gel containing 4% acrylamide, 66 mM Tris base, 33 mM borate, 3.6 mM citrate. The running buffer contains 25 mM Tris pH 8.3, 96 mM glycine, and 3.6 mM citrate. Electrophoresis were carried out at 170 V at 4° C. Spectral aconitase activity was measured by following the method of Fillebeen et al., infra, using cis-aconitate as the substrate.
To confirm that nitroxide radicals activate IRP1 binding by disassembly of the iron-sulfur cluster, we performed in-gel aconitase assays to determine whether Tempo1 decreased the activity of cytosolic aconitase. […] The band that represented the cytosolic aconitase was readily identified by its absence in lysates from IRP1−/− cells. […]
To determine whether the effect of Tempo1 on IRP1 activity was kinetically consistent with oxidative disassembly of the iron sulfur cluster, the effect of Tempo1 on aconitase activity was compared to that of the iron chelator, deferiprone (DFO), which activates IRE-binding activity of IRP1 by limiting de novo synthesis and repair of the iron sulfur cluster in IRP1. […] Recovery of aconitase activity was assessed in wild type and IRP2−/− cells.

## CC1(C)CC(O)CC(C)(C)N1[O] [Tempo1]
Lysates from WT and IRP2−/− embryonic fibroblasts
  activity of cytosolic aconitase: diminished
Mouse embryonic fibroblasts, 16 hours treatment, then fresh unsupplemented media
  time to reversal of the loss of cytosolic aconitase activity after removal: ≤ 2 h
